Experimental data taken from US10047051B2, “Substituted pyridines and method of use” (AbbVie S.á{acute over (.)}r.l., priority 2015, dated 2018).

Experiments:
CFTR ΔF508 mutant = biological target: T1, CFTR ΔF508 mutant (Homo sapiens, UniProt P13569, DEL508-508); assay: YFP-halide influx assay for the CFTR-ΔF508 mutation (CFBE41o- cells); type: cell-based; settings: forskolin 10.67 μM; for EC50: from (1−F/F0) vs concentration plot
T1 construct: expressed in transfected cells; host or cells: CFBE41o- cells, adenoviral transduction
Summary of the method: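 CFBE41o- cells transduced with adenovirus expressing CFTR ΔF508 and halide-sensitive YFP H148Q/I152L/F47L, then held 24 h at 27° C or with a CFTR modulator 24 h at 37° C. Iodide-induced quench recorded 2 min; EC50 from (1−F/F0) at 36 s versus concentration.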

CFTR G551D mutant = biological target: T2, CFTR G551D mutant (Homo sapiens, UniProt P13569, G551D); assay: YFP-halide influx assay for the CFTR-G551D mutation (HEK293 cells); type: cell-based; settings: forskolin 10.67 μM
T2 construct: expressed in transfected cells; host or cells: HEK293 cells, reverse transfection with plasmids
Summary of the method: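 HEK293 cells reverse-transfected with CFTR G551D and halide-sensitive YFP (H148Q/I152L/F47L), expressed 24 h at 37 °C. YFP fluorescence quenching recorded for 7 s after I⁻ injection. Response = 1−F/F0; EC50 derived from 1−F/F0 vs compound concentration.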

T2 sequence (P13569 whole entry G551D): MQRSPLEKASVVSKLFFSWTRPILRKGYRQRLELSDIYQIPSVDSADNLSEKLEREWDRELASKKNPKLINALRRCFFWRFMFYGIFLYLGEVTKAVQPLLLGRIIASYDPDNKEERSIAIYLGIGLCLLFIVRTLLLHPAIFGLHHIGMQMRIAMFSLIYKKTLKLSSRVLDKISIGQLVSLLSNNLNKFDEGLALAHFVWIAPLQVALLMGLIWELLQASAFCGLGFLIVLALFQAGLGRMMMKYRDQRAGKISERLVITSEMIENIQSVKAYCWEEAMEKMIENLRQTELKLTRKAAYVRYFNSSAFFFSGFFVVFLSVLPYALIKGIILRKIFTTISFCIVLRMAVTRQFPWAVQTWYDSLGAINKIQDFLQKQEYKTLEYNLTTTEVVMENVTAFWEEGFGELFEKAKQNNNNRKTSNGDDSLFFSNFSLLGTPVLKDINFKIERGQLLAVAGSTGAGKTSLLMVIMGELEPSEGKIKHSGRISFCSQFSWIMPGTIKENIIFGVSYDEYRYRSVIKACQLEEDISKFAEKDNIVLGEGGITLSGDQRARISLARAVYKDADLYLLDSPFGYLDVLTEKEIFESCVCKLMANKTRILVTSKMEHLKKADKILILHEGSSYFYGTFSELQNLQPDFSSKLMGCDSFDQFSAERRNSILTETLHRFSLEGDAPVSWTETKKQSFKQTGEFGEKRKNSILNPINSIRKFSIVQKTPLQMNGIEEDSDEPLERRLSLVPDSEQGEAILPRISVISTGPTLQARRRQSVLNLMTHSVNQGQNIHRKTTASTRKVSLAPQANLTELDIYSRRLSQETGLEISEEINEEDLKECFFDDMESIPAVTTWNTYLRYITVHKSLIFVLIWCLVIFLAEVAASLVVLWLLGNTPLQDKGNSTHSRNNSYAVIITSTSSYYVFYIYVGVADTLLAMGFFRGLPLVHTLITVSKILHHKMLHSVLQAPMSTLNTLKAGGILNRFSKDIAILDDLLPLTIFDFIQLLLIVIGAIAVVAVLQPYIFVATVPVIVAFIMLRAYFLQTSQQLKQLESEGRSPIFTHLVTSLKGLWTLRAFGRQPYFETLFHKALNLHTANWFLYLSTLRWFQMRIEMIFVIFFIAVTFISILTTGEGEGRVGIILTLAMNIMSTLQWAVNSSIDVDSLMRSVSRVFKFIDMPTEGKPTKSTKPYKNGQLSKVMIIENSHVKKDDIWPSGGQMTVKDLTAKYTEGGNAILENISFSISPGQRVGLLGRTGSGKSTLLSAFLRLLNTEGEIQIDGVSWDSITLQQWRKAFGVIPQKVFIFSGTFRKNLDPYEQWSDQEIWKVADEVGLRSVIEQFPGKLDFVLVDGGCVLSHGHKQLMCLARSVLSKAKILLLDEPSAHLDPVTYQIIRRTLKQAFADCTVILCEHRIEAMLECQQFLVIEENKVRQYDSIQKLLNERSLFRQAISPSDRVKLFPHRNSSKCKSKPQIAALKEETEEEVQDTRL
T1 sequence (P13569 with tags, fused parts or gaps DEL508-508): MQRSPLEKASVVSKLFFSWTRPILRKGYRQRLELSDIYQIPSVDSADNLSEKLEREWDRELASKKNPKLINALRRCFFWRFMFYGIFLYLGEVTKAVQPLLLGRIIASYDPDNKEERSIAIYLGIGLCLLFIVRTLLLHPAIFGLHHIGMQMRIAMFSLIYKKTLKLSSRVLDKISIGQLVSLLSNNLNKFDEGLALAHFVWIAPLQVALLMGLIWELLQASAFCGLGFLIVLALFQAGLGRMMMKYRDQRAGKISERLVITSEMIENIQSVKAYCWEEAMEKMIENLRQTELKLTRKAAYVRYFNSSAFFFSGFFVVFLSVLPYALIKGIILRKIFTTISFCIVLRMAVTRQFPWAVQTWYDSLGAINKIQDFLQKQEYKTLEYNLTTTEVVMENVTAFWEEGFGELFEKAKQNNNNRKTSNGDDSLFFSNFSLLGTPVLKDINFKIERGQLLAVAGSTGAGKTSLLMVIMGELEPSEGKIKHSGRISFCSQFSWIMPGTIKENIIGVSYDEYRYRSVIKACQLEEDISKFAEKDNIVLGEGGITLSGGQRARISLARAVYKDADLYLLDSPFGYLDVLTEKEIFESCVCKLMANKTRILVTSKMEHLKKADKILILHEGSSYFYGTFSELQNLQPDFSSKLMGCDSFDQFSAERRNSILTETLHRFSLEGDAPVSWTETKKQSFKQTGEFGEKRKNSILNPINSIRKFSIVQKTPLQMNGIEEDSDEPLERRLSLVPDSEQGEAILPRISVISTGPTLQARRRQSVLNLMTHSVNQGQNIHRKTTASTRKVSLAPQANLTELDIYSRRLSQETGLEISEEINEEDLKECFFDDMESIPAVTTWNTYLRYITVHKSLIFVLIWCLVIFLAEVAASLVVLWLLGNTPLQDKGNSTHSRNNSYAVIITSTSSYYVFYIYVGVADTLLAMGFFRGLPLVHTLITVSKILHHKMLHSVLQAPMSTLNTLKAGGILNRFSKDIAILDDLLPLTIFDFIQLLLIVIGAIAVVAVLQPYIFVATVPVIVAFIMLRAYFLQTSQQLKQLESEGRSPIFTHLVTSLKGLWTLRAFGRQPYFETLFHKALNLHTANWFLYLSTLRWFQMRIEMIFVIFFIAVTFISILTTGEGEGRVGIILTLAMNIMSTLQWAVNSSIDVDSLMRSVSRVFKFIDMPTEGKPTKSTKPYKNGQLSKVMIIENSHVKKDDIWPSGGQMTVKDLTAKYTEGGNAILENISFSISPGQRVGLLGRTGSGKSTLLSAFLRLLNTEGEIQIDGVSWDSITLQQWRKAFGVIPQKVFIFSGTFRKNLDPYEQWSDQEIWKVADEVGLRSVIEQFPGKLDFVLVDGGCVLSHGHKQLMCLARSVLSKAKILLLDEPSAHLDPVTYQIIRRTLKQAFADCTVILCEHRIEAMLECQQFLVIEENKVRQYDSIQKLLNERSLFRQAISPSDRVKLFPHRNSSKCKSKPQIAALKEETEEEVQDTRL

Structure (SMILES)	% Activation (CFTR ΔF508 mutant) [%]	EC50 (CFTR ΔF508 mutant) [nM]	% Activation (CFTR G551D mutant) [%]	EC50 (CFTR G551D mutant) [nM]
COCCC(C)(O)CNC(=O)c1ncc(S(=O)(=O)c2ccc(C(F)(F)F)cc2)cc1N (stereo not drawn) [Compound 167, 3-amino-N-(2-hydroxy-4-methoxy-2-methylbutyl)-5-{[4-(trifluoromethyl)phenyl]sulfonyl}pyridine-2-carboxamide]	98.3	41.7	71.5	1550
CC(C)OCC(O)CNC(=O)c1ncc(S(=O)(=O)c2ccc(OC(F)(F)F)cc2F)cc1N (stereo not drawn) [Compound 168, 3-amino-5-{[2-fluoro-4-(trifluoromethoxy)phenyl]sulfonyl}-N-[2-hydroxy-3-(propan-2-yloxy)propyl]pyridine-2-carboxamide]	103.5	9.6	82.4	539
Nc1cc(S(=O)(=O)c2ccc(OC(F)(F)F)cc2F)cnc1C(=O)NCC(O)COCC1CC1 (stereo not drawn) [Compound 169, 3-amino-N-[3-(cyclopropylmethoxy)-2-hydroxypropyl]-5-{[2-fluoro-4-(trifluoromethoxy)phenyl]sulfonyl}pyridine-2-carboxamide]	95.5	13.8	81.3	1120
Nc1cc(S(=O)(=O)c2ccc(OC(F)(F)F)cc2F)cnc1C(=O)N1CC(F)(F)C1 [Compound 172, (3-amino-5-{[2-fluoro-4-(trifluoromethoxy)phenyl]sulfonyl}pyridin-2-yl)(3,3-difluoroazetidin-1-yl)methanone]	95.9	13.4	62.4	864
C[C@@H]1CCCN1S(=O)(=O)c1cnc(C(=O)NCC(O)C(F)(F)F)c(N)c1 (stereo partly drawn) [Compound 179, 3-amino-5-{[(2R)-2-methylpyrrolidin-1-yl]sulfonyl}-N-(3,3,3-trifluoro-2-hydroxypropyl)pyridine-2-carboxamide]	100.4	27.7	52.6	1350
Nc1cc(S(=O)(=O)N2CC[C@H](F)C2)cnc1C(=O)NCC(O)C(F)(F)F (stereo partly drawn) [Compound 180, 3-amino-5-{[(3S)-3-fluoropyrrolidin-1-yl]sulfonyl}-N-(3,3,3-trifluoro-2-hydroxypropyl)pyridine-2-carboxamide]	97.0	107	30.2	> 10000
C[C@H]1CCCN1S(=O)(=O)c1cnc(C(=O)NCC(O)C(F)(F)F)c(N)c1 (stereo partly drawn) [Compound 181, 3-amino-5-{[(2S)-2-methylpyrrolidin-1-yl]sulfonyl}-N-(3,3,3-trifluoro-2-hydroxypropyl)pyridine-2-carboxamide]	90.6	19.8	61.4	1330
Nc1cc(S(=O)(=O)N2CCCC(F)(F)C2)cnc1C(=O)NCC(O)C(F)(F)F (stereo not drawn) [Compound 183, 3-amino-5-[(3,3-difluoropiperidin-1-yl)sulfonyl]-N-(3,3,3-trifluoro-2-hydroxypropyl)pyridine-2-carboxamide]	103.7	20.8	42.0	1130
Nc1cc(S(=O)(=O)N2CCC(F)(F)C2)cnc1C(=O)NCC(O)C(F)(F)F (stereo not drawn) [Compound 186, 3-amino-5-[(3,3-difluoropyrrolidin-1-yl)sulfonyl]-N-(3,3,3-trifluoro-2-hydroxypropyl)pyridine-2-carboxamide]	108.2	29.9	49.9	> 3330
CC(C)C(C)NC(=O)c1ncc(S(=O)(=O)c2ccc(C(F)(F)F)cc2)cc1N (stereo not drawn) [Compound 188, 3-amino-N-(3-methylbutan-2-yl)-5-{[4-(trifluoromethyl)phenyl]sulfonyl}pyridine-2-carboxamide]	88.8	378	13.4	> 10000
CC(C)CNC(=O)c1ncc(S(=O)(=O)c2ccc(C(F)(F)F)cc2)cc1N [Compound 189, 3-amino-N-(2-methylpropyl)-5-{[4-(trifluoromethyl)phenyl]sulfonyl}pyridine-2-carboxamide]	99.9	112	30.7	> 10000
Nc1cc(S(=O)(=O)c2ccc(C(F)(F)F)cc2)cnc1C(=O)NCCOCC1CCCO1 (stereo not drawn) [Compound 190, 3-amino-N-[2-(tetrahydrofuran-2-ylmethoxy)ethyl]-5-{[4-(trifluoromethyl)phenyl]sulfonyl}pyridine-2-carboxamide]	96.6	135	67.4	1880
CC(C)(C)CNC(=O)c1ncc(S(=O)(=O)c2ccc(C(F)(F)F)cc2)cc1N [Compound 191, 3-amino-N-(2,2-dimethylpropyl)-5-{[4-(trifluoromethyl)phenyl]sulfonyl}pyridine-2-carboxamide]	99.7	157	11.7	> 10000
CC(C)OCCNC(=O)c1ncc(S(=O)(=O)c2ccc(C(F)(F)F)cc2)cc1N [Compound 192, 3-amino-N-[2-(propan-2-yloxy)ethyl]-5-{[4-(trifluoromethyl)phenyl]sulfonyl}pyridine-2-carboxamide]	101.5	38.8	58.4	868

Now those with a lower EC50 (CFTR ΔF508 mutant), led by results:

% Activation (CFTR ΔF508 mutant) [%]	EC50 (CFTR ΔF508 mutant) [nM]	% Activation (CFTR G551D mutant) [%]	EC50 (CFTR G551D mutant) [nM]	Structure (SMILES)
103.7	8.7	86.4	991	CC(C)COCC(O)CNC(=O)c1ncc(S(=O)(=O)c2ccc(OC(F)(F)F)cc2F)cc1N (stereo not drawn) [Compound 171, 3-amino-5-{[2-fluoro-4-(trifluoromethoxy)phenyl]sulfonyl}-N-[2-hydroxy-3-(2-methylpropoxy)propyl]pyridine-2-carboxamide]
111.0	6.9	66.4	392	CC1CCN(S(=O)(=O)c2cnc(C(=O)NCC(O)C(F)(F)F)c(N)c2)CC1 (stereo not drawn) [Compound 184, 3-amino-5-[(4-methylpiperidin-1-yl)sulfonyl]-N-(3,3,3-trifluoro-2-hydroxypropyl)pyridine-2-carboxamide]
108.6	6.6	82.5	251	CC(C)COCC(O)CNC(=O)c1ncc(S(=O)(=O)c2ccc(C(F)(F)F)cc2F)cc1N (stereo not drawn) [Compound 170, 3-amino-5-{[2-fluoro-4-(trifluoromethyl)phenyl]sulfonyl}-N-[2-hydroxy-3-(2-methylpropoxy)propyl]pyridine-2-carboxamide]
103.0	6.3	44.0	> 3330	CC(C)C1(O)CN(C(=O)c2ncc(S(=O)(=O)c3ccc(OC(F)(F)F)cc3F)cc2N)C1 [Compound 175, (3-amino-5-{[2-fluoro-4-(trifluoromethoxy)phenyl]sulfonyl}pyridin-2-yl)[3-hydroxy-3-(propan-2-yl)azetidin-1-yl]methanone]
118.3	5.9	50.3	371	CC(C)(O)C1CN(C(=O)c2ncc(S(=O)(=O)c3ccc(OC(F)(F)F)cc3F)cc2N)C1 [Compound 174, (3-amino-5-{[2-fluoro-4-(trifluoromethoxy)phenyl]sulfonyl}pyridin-2-yl)[3-(2-hydroxypropan-2-yl)azetidin-1-yl]methanone]
109.7	5.6	75.8	322	CC(C)(O)C1CN(C(=O)c2ncc(S(=O)(=O)c3ccc(C(F)(F)F)cc3F)cc2N)C1 [Compound 178, (3-amino-5-{[2-fluoro-4-(trifluoromethyl)phenyl]sulfonyl}pyridin-2-yl)[3-(2-hydroxypropan-2-yl)azetidin-1-yl]methanone]
112.7	4.7	51.3	645	CC1CCCN(S(=O)(=O)c2cnc(C(=O)NCC(O)C(F)(F)F)c(N)c2)C1 (stereo not drawn) [Compound 182, 3-amino-5-[(3-methylpiperidin-1-yl)sulfonyl]-N-(3,3,3-trifluoro-2-hydroxypropyl)pyridine-2-carboxamide]
111.3	2.9	69.4	1120	CC1CC(C)CN(S(=O)(=O)c2cnc(C(=O)NCC(O)C(F)(F)F)c(N)c2)C1 (stereo not drawn) [Compound 185, 3-amino-5-[(3,5-dimethylpiperidin-1-yl)sulfonyl]-N-(3,3,3-trifluoro-2-hydroxypropyl)pyridine-2-carboxamide]
99.1	2.8	71.8	705	CN(Cc1ccc(F)cc1)S(=O)(=O)c1cnc(C(=O)NCC(O)C(F)(F)F)c(N)c1 (stereo not drawn) [Compound 187, 3-amino-5-[(4-fluorobenzyl)(methyl)sulfamoyl]-N-(3,3,3-trifluoro-2-hydroxypropyl)pyridine-2-carboxamide]
98.3	2.6	47.6	181	Nc1cc(S(=O)(=O)c2ccc(OC(F)(F)F)cc2F)cnc1C(=O)N1CC(O)(C(F)(F)F)C1 [Compound 173, (3-amino-5-{[2-fluoro-4-(trifluoromethoxy)phenyl]sulfonyl}pyridin-2-yl)[3-hydroxy-3-(trifluoromethyl)azetidin-1-yl]methanone]
